Columns and labels:
[1] = molecular target: T1, human melanocortin-4 receptor (MC-4R) (Homo sapiens, UniProt P32245); experiment: Membrane binding assay: competition with fluorescence labeled NDP-alpha-MSH, fluorescence polarization; details: HEK293 cell membrane preparations expressing human MC-4R, read-out: hMC-4R binding assay IC50
T1 construct: expressed in transfected cells; host or cells: HEK293

[2] = molecular target: T1, human melanocortin-4 receptor (MC-4R); experiment: Functional assay: agonistic activity, cAMP production in membrane preparations compared with NDP-alpha-MSH, fluorescence polarization; type: biochemical; details: for Emax: cAMP produced compared to stimulation with NDP-alpha-MSH, read-out: % activation functional assay; for EC50: cAMP production, membrane preparations from HEK293 cells expressing human MC-4R, read-out: hMC-4R functional assay EC50

T1 sequence (P32245 whole entry): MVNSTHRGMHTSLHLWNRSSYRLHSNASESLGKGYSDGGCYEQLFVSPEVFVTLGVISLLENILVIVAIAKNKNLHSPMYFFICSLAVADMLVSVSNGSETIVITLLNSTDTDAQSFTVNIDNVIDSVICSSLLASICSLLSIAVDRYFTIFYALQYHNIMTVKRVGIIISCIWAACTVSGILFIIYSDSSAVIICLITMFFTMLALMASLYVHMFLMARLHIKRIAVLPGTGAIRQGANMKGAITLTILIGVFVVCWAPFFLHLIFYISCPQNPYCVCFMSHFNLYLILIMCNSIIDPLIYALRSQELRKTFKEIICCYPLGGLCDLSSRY

SMILES | IC50 [1] | Emax [2] | EC50 [2]
Cc1ccc(C2CCN(C(=O)[C@@H](Cc3ccc(Cl)cc3Cl)NC(=O)N3CCCC3)CC2)c(NCCN2CCCC2)n1 [Example 1] | ≤ 100 nM | 0% | 
Cc1ccc(C2CCN(C(=O)[C@@H](Cc3ccc(Cl)cc3Cl)NC(=O)N3CCCC3)CC2)c(N(C)CCN2CCCC2)n1 [Example 2] | ≤ 100 nM | 0% | 
Cc1cnc(N(C)CCN2CCCC2)c(C2CCN(C(=O)[C@@H](Cc3ccc(Cl)cc3Cl)NC(=O)N3CCCC3)CC2)c1 [Example 3] | 100 to 1000 nM | 0% | 
Cc1ccc(C2CCN(C(=O)[C@@H](Cc3ccc(Cl)cc3Cl)NC(=O)N3CCCC3)CC2)c(N2CCN(C)CC2)n1 [Example 4] | ≤ 100 nM | 0% | 
O=C(N[C@H](Cc1ccc(Cl)cc1Cl)C(=O)N1CCC(c2cccnc2OCCN2CCCC2)CC1)N1CCCC1 [Example 5] | ≤ 100 nM | 0% | 
Cc1ccc(C2CCN(C(=O)[C@@H](Cc3ccc(Cl)cc3Cl)NC(=O)N3CCCC3)CC2)c(OCCN2CCCC2)n1 [Example 6] | ≤ 100 nM | 0% | 
CC[C@@H](CN1CCCC1)Oc1ncccc1C1CCN(C(=O)[C@@H](Cc2ccc(Cl)cc2Cl)NC(=O)N2CCCC2)CC1 [Example 7] | ≤ 100 nM | 0% | 
CC[C@@H](CN1CCCC1)Oc1ncc(C)cc1C1CCN(C(=O)[C@@H](Cc2ccc(Cl)cc2Cl)NC(=O)N2CCCC2)CC1 [Example 9] | ≤ 100 nM | 0% | 
O=C(N[C@H](Cc1ccc(Cl)cc1Cl)C(=O)N1CCC(c2cccnc2O[C@H]2CN3CCC2CC3)CC1)N1CCCC1 [Example 10] | 100 to 1000 nM | 0% | 
CC[C@@H](CN1CCCC1)Oc1cnccc1C1CCN(C(=O)[C@@H](Cc2ccc(Cl)cc2Cl)NC(=O)N2CCCC2)CC1 [Example 11] | ≤ 100 nM | 0% | 
CC[C@@H](CN1CCCC1)Oc1ccncc1C1CCN(C(=O)[C@@H](Cc2ccc(Cl)cc2Cl)NC(=O)N2CCCC2)CC1 [Example 12] | ≤ 100 nM | 0% | 
CC[C@H](COc1ccncc1C1CCN(C(=O)[C@@H](Cc2ccc(Cl)cc2Cl)NC(=O)N2CCCC2)CC1)N(C)C [Example 13] | 100 to 1000 nM | 0% | 
O=C(N[C@H](Cc1ccc(Cl)cc1Cl)C(=O)N1CCC(c2ncccc2OCCN2CCCC2)CC1)N1CCCC1 [Example 14] | 100 to 1000 nM | 0% | 
C[C@@H](CN(C)C)Oc1cccnc1C1CCN(C(=O)[C@@H](Cc2ccc(Cl)cc2Cl)NC(=O)N2CCCC2)CC1 [Example 15] | ≤ 100 nM | 0% | 
C[C@@H](CN1CCCC1)Oc1cccnc1C1CCN(C(=O)[C@@H](Cc2ccc(Cl)cc2Cl)NC(=O)N2CCCC2)CC1 [Example 16] | ≤ 100 nM | 0% | 
CC[C@@H](CN1CCCC1)Oc1cccnc1C1CCN(C(=O)[C@@H](Cc2ccc(Cl)cc2Cl)NC(=O)N2CCCC2)CC1 [Example 17] | ≤ 100 nM | 0% | 
CC[C@H](COc1cccnc1C1CCN(C(=O)[C@@H](Cc2ccc(Cl)cc2Cl)NC(=O)N2CCCC2)CC1)N(C)C [Example 18] | ≤ 100 nM | 0% | 
CN(C)C(C)(C)COc1cccnc1C1CCN(C(=O)[C@@H](Cc2ccc(Cl)cc2Cl)NC(=O)N2CCCC2)CC1 [Example 20] | ≤ 100 nM | 0% | 
CN1CCC[C@H](Oc2cccnc2C2CCN(C(=O)[C@@H](Cc3ccc(Cl)cc3Cl)NC(=O)N3CCCC3)CC2)C1 [Example 21] | ≤ 100 nM | 0% | 
C[C@H](Oc1cccnc1C1CCN(C(=O)[C@@H](Cc2ccc(Cl)cc2Cl)NC(=O)N2CCCC2)CC1)[C@@H](C)N(C)C [Example 22] | ≤ 100 nM | 0% | 
CN1CCN(c2cccnc2C2CCN(C(=O)[C@@H](Cc3ccc(Cl)cc3Cl)NC(=O)N3CCCC3)CC2)CC1 [Example 23] | 100 to 1000 nM | 0% | 
O=C(N[C@H](Cc1ccc(Cl)cc1Cl)C(=O)N1CCC(c2ncccc2O[C@H]2CN3CCC2CC3)CC1)N1CCCC1 [Example 26] | 100 to 1000 nM | 0% | 
O=C(N[C@H](Cc1ccc(Cl)cc1Cl)C(=O)N1CCC(c2ncccc2OC2CN3CCC2CC3)CC1)N1CCCC1 (stereo partly drawn) [Example 29] | 100 to 1000 nM | 0% | 

More lines, now with the values ahead:

IC50 [1] | Emax [2] | EC50 [2] | SMILES
≤ 100 nM | 0% |  | CC[C@H](COc1cc(C)cnc1C1CCN(C(=O)[C@@H](Cc2ccc(Cl)cc2Cl)NC(=O)N2CCCC2)CC1)N1CCCC1 [Example 24]
≤ 100 nM | 0% |  | C[C@H](COc1cccnc1C1CCN(C(=O)[C@@H](Cc2ccc(Cl)cc2Cl)NC(=O)N2CCCC2)CC1)N(C)C [Example 25]
≤ 100 nM | 0% |  | CC[C@H](COc1cc(C)cnc1C1CCN(C(=O)[C@@H](Cc2ccc(Cl)cc2Cl)NC(=O)N2CCCC2)CC1)N(C)C [Example 27]
100 to 1000 nM | 0% |  | CN1CCN(Cc2cccnc2C2CCN(C(=O)[C@@H](Cc3ccc(Cl)cc3Cl)NC(=O)N3CCCC3)CC2)CC1 [Example 28]
≤ 100 nM | -8% |  | CC(C)[C@H](COc1cccnc1C1CCN(C(=O)[C@@H](Cc2ccc(Cl)cc2Cl)NC(=O)N2CCCC2)CC1)N(C)C [Example 30]
≤ 100 nM | -3% |  | CC[C@@H](COc1cccnc1C1CCN(C(=O)[C@@H](Cc2ccc(Cl)cc2Cl)NC(=O)N2CCCC2)CC1)N1CCCC1 [Example 31]
≤ 100 nM | 36% | > 1000 nM | CC[C@@H](CN(C)C)Oc1cccnc1C1CCN(C(=O)[C@@H](Cc2ccc(Cl)cc2Cl)NC(=O)N2CCCC2)CC1 [Example 32]
100 to 1000 nM | 0% |  | CC[C@@H](COc1cccnc1C1CCN(C(=O)[C@@H](Cc2ccc(Cl)cc2Cl)NC(=O)N2CCCC2)CC1)N(C)C [Example 33]
> 1000 nM | -3% |  | CC[C@H](CN(C)C)Oc1cccnc1C1CCN(C(=O)[C@@H](Cc2ccc(Cl)cc2Cl)NC(=O)N2CCCC2)CC1 [Example 34]
100 to 1000 nM | 7% |  | CC[C@H](COc1c(C)ccnc1C1CCN(C(=O)[C@@H](Cc2ccc(Cl)cc2Cl)NC(=O)N2CCCC2)CC1)N(C)C [Example 35]
≤ 100 nM | 8% |  | CC[C@H](COc1cc(OC)cnc1C1CCN(C(=O)[C@@H](Cc2ccc(Cl)cc2Cl)NC(=O)N2CCCC2)CC1)N(C)C [Example 36]
100 to 1000 nM | -2% |  | CN1CCN(CCOc2cccnc2C2CCN(C(=O)[C@@H](Cc3ccc(Cl)cc3Cl)NC(=O)N3CCCC3)CC2)CC1 [Example 37]
100 to 1000 nM | -5% |  | CN1CCC(Oc2cccnc2C2CCN(C(=O)[C@@H](Cc3ccc(Cl)cc3Cl)NC(=O)N3CCCC3)CC2)CC1 [Example 38]
≤ 100 nM | -13% |  | CN1CCN(Cc2cc(Cl)cnc2C2CCN(C(=O)[C@@H](Cc3ccc(Cl)cc3Cl)NC(=O)N3CCCC3)CC2)CC1 [Example 39]
≤ 100 nM | -11% |  | CC[C@H](COc1cc(Cl)cnc1C1CCN(C(=O)[C@@H](Cc2ccc(Cl)cc2Cl)NC(=O)N2CCCC2)CC1)N1CCCC1 [Example 40]
100 to 1000 nM | -1% |  | CN1CC(Oc2cccnc2C2CCN(C(=O)[C@@H](Cc3ccc(Cl)cc3Cl)NC(=O)N3CCCC3)CC2)C1 [Example 41]

IC50 [1] | Emax [2] | EC50 [2] | SMILES
100 to 1000 nM | -1% |  | CN1CC[C@H](Oc2cccnc2C2CCN(C(=O)[C@@H](Cc3ccc(Cl)cc3Cl)NC(=O)N3CCCC3)CC2)C1 [Example 42]
100 to 1000 nM | 0% |  | CN1CC[C@@H](Oc2cccnc2C2CCN(C(=O)[C@@H](Cc3ccc(Cl)cc3Cl)NC(=O)N3CCCC3)CC2)C1 [Example 43]
100 to 1000 nM | -4% |  | CN1CCC[C@H]1COc1cccnc1C1CCN(C(=O)[C@@H](Cc2ccc(Cl)cc2Cl)NC(=O)N2CCCC2)CC1 [Example 44]
≤ 100 nM | -27% | 100 to 1000 nM | CN1CCC[C@@H]1COc1cccnc1C1CCN(C(=O)[C@@H](Cc2ccc(Cl)cc2Cl)NC(=O)N2CCCC2)CC1 [Example 45]
> 1000 nM | -13% |  | COC[C@H](CN(C)C)Oc1cccnc1C1CCN(C(=O)[C@@H](Cc2ccc(Cl)cc2Cl)NC(=O)N2CCCC2)CC1 [Example 46]
≤ 100 nM | -36% | 100 to 1000 nM | COC[C@@H](CN(C)C)Oc1cccnc1C1CCN(C(=O)[C@@H](Cc2ccc(Cl)cc2Cl)NC(=O)N2CCCC2)CC1 [Example 47]
≤ 100 nM | 0% |  | CN1CCOC[C@H](Oc2cccnc2C2CCN(C(=O)[C@@H](Cc3ccc(Cl)cc3Cl)NC(=O)N3CCCC3)CC2)C1 [Example 48]
100 to 1000 nM | -3% |  | CN1CCO[C@H](COc2cccnc2C2CCN(C(=O)[C@@H](Cc3ccc(Cl)cc3Cl)NC(=O)N3CCCC3)CC2)C1 [Example 49]
≤ 100 nM | 0% |  | CC[C@H]1CN(C)CCN1Cc1cccnc1C1CCN(C(=O)[C@@H](Cc2ccc(Cl)cc2Cl)NC(=O)N2CCCC2)CC1 [Example 50]
100 to 1000 nM | 0% |  | CN1CC[C@H](COc2cccnc2C2CCN(C(=O)[C@@H](Cc3ccc(Cl)cc3Cl)NC(=O)N3CCCC3)CC2)C1 [Example 51]
100 to 1000 nM | 4% |  | CN1CCOC[C@@H](Oc2cccnc2C2CCN(C(=O)[C@@H](Cc3ccc(Cl)cc3Cl)NC(=O)N3CCCC3)CC2)C1 [Example 52]
> 1000 nM | 1% |  | CN1CCO[C@@H](COc2cccnc2C2CCN(C(=O)[C@@H](Cc3ccc(Cl)cc3Cl)NC(=O)N3CCCC3)CC2)C1 [Example 53]
100 to 1000 nM | 10% |  | CN1CC[C@@H](COc2cccnc2C2CCN(C(=O)[C@@H](Cc3ccc(Cl)cc3Cl)NC(=O)N3CCCC3)CC2)C1 [Example 54]
100 to 1000 nM | 2% |  | CN1CCOC[C@@H]1COc1cccnc1C1CCN(C(=O)[C@@H](Cc2ccc(Cl)cc2Cl)NC(=O)N2CCCC2)CC1 [Example 55]
≤ 100 nM | -5% |  | CN1CCN(C)CC(Oc2cccnc2C2CCN(C(=O)[C@@H](Cc3ccc(Cl)cc3Cl)NC(=O)N3CCCC3)CC2)C1 [Example 56]

From patent US20100249093A1, “Substituted Heteroarylpiperidine Derivatives As Melanocortin-4 Receptor Modulators” (SANTHERA PHARMACEUTICALS (SCHWEIZ) AG, priority 2007, published 2010)
